# Columns and labels:
# Assay in all cases: relative viability (nuclei count vs DMSO), 5 days (fraction); higher = more cells survive
# [1] = system: 201T
# Procedure, shortened: (§1)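 One day after seeding in 1536-well plates, lung cancer cell lines were dosed by pin tool. Dosing was either single-drug or a fixed anchor-drug dose plus five library-drug doses (not always all listed) in √10 steps. After 5 days, nuclei were stained in one fix-and-stain step and counted on 4× images, and relative viability is the nuclei count of treated wells over that of vehicle wells, given as the median of duplicate plates.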
# [2] = system: ABC-1
# Procedure, shortened: as §1
# [3] = system: BEN
# Procedure, shortened: as §1
# [4] = system: CAL-12T
# Procedure, shortened: as §1
# [5] = system: COR-L 105
# Procedure, shortened: as §1
# [6] = system: COR-L23
# Procedure, shortened: as §1
# [7] = system: EKVX
# Procedure, shortened: as §1
# [8] = system: HARA
# Procedure, shortened: as §1
# [9] = system: HCC-366
# Procedure, shortened: as §1
# [10] = system: LK-2
# Procedure, shortened: as §1
# [11] = system: LU99A
# Procedure, shortened: as §1
# [12] = system: NCI-H1437
# Procedure, shortened: as §1
# [13] = system: NCI-H1650
# Procedure, shortened: as §1
# [14] = system: NCI-H1666
# Procedure, shortened: as §1
# [15] = system: NCI-H2009
# Procedure, shortened: as §1
# [16] = system: NCI-H2023
# Procedure, shortened: as §1
# [17] = system: NCI-H2170
# Procedure, shortened: as §1
# [18] = system: NCI-H3122
# Procedure, shortened: as §1
# [19] = system: NCI-H441
# Procedure, shortened: as §1
# [20] = system: NCI-H661
# Procedure, shortened: as §1
# [21] = system: NCI-H727
# Procedure, shortened: as §1
# [22] = system: NCI-H838
# Procedure, shortened: as §1
# [23] = system: PC-14
# Procedure, shortened: as §1
# [24] = system: SW 900
# Procedure, shortened: as §1
compound,measurement,setting,value
Clc1ccc(Nc2nnc(Cc3ccncc3)c3ccccc23)cc1 [Vatalanib] + O=C(CCCCCCC(=O)Nc1ccccc1)NO [Vorinostat] (partner 1 µM),relative viability,[1]; first compound 0.04 µM,0.995
same,relative viability,[1]; first compound 0.1265 µM,1.01
same,relative viability,[1]; first compound 0.4 µM,1.06
same,relative viability,[1]; first compound 1.265 µM,1.01
same,relative viability,[1]; first compound 4 µM,1.07
same,relative viability,[2]; first compound 0.04 µM,1.06
same,relative viability,[2]; first compound 0.1265 µM,0.863
same,relative viability,[2]; first compound 0.4 µM,1.01
same,relative viability,[2]; first compound 4 µM,1.39
same,relative viability,[3]; first compound 0.04 µM,0.57
same,relative viability,[3]; first compound 0.1265 µM,0.625
same,relative viability,[3]; first compound 0.4 µM,0.594
same,relative viability,[3]; first compound 1.265 µM,0.561
same,relative viability,[3]; first compound 4 µM,0.61
same,relative viability,[4]; first compound 0.04 µM,0.872
same,relative viability,[4]; first compound 0.1265 µM,0.714
same,relative viability,[4]; first compound 0.4 µM,0.734
same,relative viability,[4]; first compound 1.265 µM,0.737
same,relative viability,[4]; first compound 4 µM,0.784
same,relative viability,[5]; first compound 0.04 µM,0.846
same,relative viability,[5]; first compound 0.1265 µM,0.806
same,relative viability,[5]; first compound 0.4 µM,0.829
same,relative viability,[5]; first compound 1.265 µM,0.905
same,relative viability,[5]; first compound 4 µM,0.794
same,relative viability,[6]; first compound 0.04 µM,0.356
same,relative viability,[6]; first compound 0.1265 µM,0.553
same,relative viability,[6]; first compound 0.4 µM,0.499
same,relative viability,[6]; first compound 1.265 µM,0.417
same,relative viability,[6]; first compound 4 µM,0.469
same,relative viability,[7]; first compound 0.04 µM,0.773
same,relative viability,[7]; first compound 0.1265 µM,0.767
same,relative viability,[7]; first compound 0.4 µM,0.831
same,relative viability,[7]; first compound 1.265 µM,0.655
same,relative viability,[7]; first compound 4 µM,0.665
same,relative viability,[8]; first compound 0.04 µM,0.643
same,relative viability,[8]; first compound 0.1265 µM,0.51
same,relative viability,[8]; first compound 0.4 µM,0.479
same,relative viability,[8]; first compound 1.265 µM,0.566
same,relative viability,[8]; first compound 4 µM,0.481
same,relative viability,[9]; first compound 0.04 µM,0.361
same,relative viability,[9]; first compound 0.1265 µM,0.434
same,relative viability,[9]; first compound 0.4 µM,0.451
same,relative viability,[9]; first compound 1.265 µM,0.254
same,relative viability,[9]; first compound 4 µM,0.394
same,relative viability,[10]; first compound 0.04 µM,0.388
same,relative viability,[10]; first compound 0.1265 µM,0.314
same,relative viability,[10]; first compound 0.4 µM,0.328
same,relative viability,[10]; first compound 1.265 µM,0.308
same,relative viability,[10]; first compound 4 µM,0.222
same,relative viability,[11]; first compound 0.04 µM,0.554
same,relative viability,[11]; first compound 0.1265 µM,0.544
same,relative viability,[11]; first compound 0.4 µM,0.535
same,relative viability,[11]; first compound 1.265 µM,0.472
same,relative viability,[11]; first compound 4 µM,0.467
same,relative viability,[12]; first compound 0.04 µM,0.836
same,relative viability,[12]; first compound 0.1265 µM,0.851
same,relative viability,[12]; first compound 0.4 µM,0.88
same,relative viability,[12]; first compound 1.265 µM,0.616
same,relative viability,[12]; first compound 4 µM,0.673
same,relative viability,[13]; first compound 0.04 µM,0.555
same,relative viability,[13]; first compound 0.1265 µM,0.517
same,relative viability,[13]; first compound 0.4 µM,0.616
same,relative viability,[13]; first compound 1.265 µM,0.473
same,relative viability,[13]; first compound 4 µM,0.534
same,relative viability,[14]; first compound 0.04 µM,0.997
same,relative viability,[14]; first compound 0.1265 µM,1.02
same,relative viability,[14]; first compound 0.4 µM,1.03
same,relative viability,[14]; first compound 1.265 µM,1.04
same,relative viability,[14]; first compound 4 µM,0.908
same,relative viability,[15]; first compound 0.04 µM,0.767
same,relative viability,[15]; first compound 0.1265 µM,0.741
same,relative viability,[15]; first compound 0.4 µM,0.735
same,relative viability,[15]; first compound 1.265 µM,0.732
same,relative viability,[15]; first compound 4 µM,0.687
same,relative viability,[16]; first compound 0.04 µM,0.674
same,relative viability,[16]; first compound 0.1265 µM,0.688
same,relative viability,[16]; first compound 0.4 µM,0.716
same,relative viability,[16]; first compound 1.265 µM,0.5
same,relative viability,[16]; first compound 4 µM,0.628
same,relative viability,[17]; first compound 0.04 µM,0.858
same,relative viability,[17]; first compound 0.1265 µM,0.853
same,relative viability,[17]; first compound 0.4 µM,0.825
same,relative viability,[17]; first compound 1.265 µM,0.743
same,relative viability,[17]; first compound 4 µM,0.764
same,relative viability,[18]; first compound 0.04 µM,1.27
same,relative viability,[18]; first compound 0.1265 µM,0.99
same,relative viability,[18]; first compound 0.4 µM,0.96
same,relative viability,[18]; first compound 1.265 µM,1.01
same,relative viability,[18]; first compound 4 µM,1.12
same,relative viability,[19]; first compound 0.04 µM,0.907
same,relative viability,[19]; first compound 0.1265 µM,0.589
same,relative viability,[19]; first compound 0.4 µM,0.704
same,relative viability,[19]; first compound 1.265 µM,0.776
same,relative viability,[19]; first compound 4 µM,0.81
same,relative viability,[20]; first compound 0.04 µM,0.8
same,relative viability,[20]; first compound 0.1265 µM,0.872
same,relative viability,[20]; first compound 0.4 µM,0.778
same,relative viability,[20]; first compound 1.265 µM,0.775
same,relative viability,[20]; first compound 4 µM,0.805
same,relative viability,[21]; first compound 0.1265 µM,1.28
same,relative viability,[21]; first compound 0.4 µM,1.17
same,relative viability,[21]; first compound 1.265 µM,1.1
same,relative viability,[21]; first compound 4 µM,1.17
same,relative viability,[22]; first compound 0.04 µM,0.738
same,relative viability,[22]; first compound 0.1265 µM,0.761
same,relative viability,[22]; first compound 0.4 µM,0.775
same,relative viability,[22]; first compound 1.265 µM,0.62
same,relative viability,[22]; first compound 4 µM,0.694
same,relative viability,[23]; first compound 0.04 µM,0.746
same,relative viability,[23]; first compound 0.1265 µM,0.721
same,relative viability,[23]; first compound 0.4 µM,0.801
same,relative viability,[23]; first compound 1.265 µM,0.716
same,relative viability,[23]; first compound 4 µM,0.62
same,relative viability,[24]; first compound 0.04 µM,0.551
same,relative viability,[24]; first compound 0.1265 µM,0.549
same,relative viability,[24]; first compound 0.4 µM,0.583
same,relative viability,[24]; first compound 1.265 µM,0.344
same,relative viability,[24]; first compound 4 µM,0.591
